Earlier results in patent publication US20020016372A1, “Method for preventing and treating alzheimer's disease and brain damage associated with cardiov ascular disease and head injury” (priority 2000, published 2002).
Entries after “also recorded” stand apart in the source; their conditions may differ. Like-named read-outs stand apart in the source and are kept apart here.

Legend:
[1] = system: NGF; conditions: aged rodents
[2] = system: Caco-2 Colon Carcinoma Cells; conditions: oxidant effect
[3] = system: Human Lymphocytes; conditions: comet assay
[4] = system: brain sulfotransferase; conditions: mice; for brain sulfotransferase activity: in vivo
[5] = rat, dietary supplementation
[6] = system: protein tyrosine phosphorylation in the brain; conditions: chick embryo

Which “activity in AD patients” value (European trials) does the source give for `COC1=C(OC)C(=O)C(CCCCCCCCCCO)=C(C)C1=O` [Idebenone] here?
Its value is “appeared to have some activity”.

What about the “activity in AD patients” value (U.S. trial (abandoned)) of the same molecule?
The value was “no activity was found”.

And the “NGF levels in the brains” value [1]?
The value was “increases”.

With `CC1=CC(=O)c2ccccc2C1=O` [menadione, 2-methylnaphthoquinone] as the molecule, how does the calcium-mediated signaling [2] read?
Its calcium-mediated signaling is “perturb”.

And the “thiol-containing compounds in cells” value [2]?
The value was “can deplete”.

What about the DNA damage [3] of the same molecule?
Its DNA damage is “can induce DNA damage”.

With `CC1=C(C/C=C(\C)CCC[C@H](C)CCC[C@H](C)CCCC(C)C)C(=O)c2ccccc2C1=O` [phylloquinone, Phylloquinone] as the molecule, how does the brain sulfotransferase activity [4] read?
The brain sulfotransferase activity was “increased”.

And the “concentration of menaquinone-4 in the brain” value [5]?
The value was “increased; also recorded: augments”.

With `CC(=O)CC(c1ccccc1)c1c(O)c2ccccc2oc1=O` (stereo not drawn) [warfarin] as the molecule, how does the “protein tyrosine phosphorylation in the brain” value [6] read?
Its value is “decreases”.

What about the “incorporation of labeled sulfate into brain sulfatides” value [4] of the same molecule?
The value was “decrease”.

What about the brain sulfotransferase activity [4] of the same molecule?
Its brain sulfotransferase activity is “decrease”.

With vitamin K as the molecule, how does the “protein tyrosine phosphorylation in the brain” value [6] read?
Its value is “increases”.
